Laboratory results: patent US20230312561A1, “SOLID FORMS OF (Z)-METHYL 3-(((4-(N-METHYL-2-(4-METHYLPIPERAZIN-1-YL)ACETAMIDO)PHENYL)AMINO)(PHENYL)METHYLENE)-2-OXO-2,3-DIHYDRO-1H-PYRROLO[2,3-B]PYRIDINE-6-CARBOXYLATE AND SALTS THEREOF” (Angion Biomedica Corp., priority 2020, published 2023)

What was measured:
[1] = Dynamic Vapor Sorption (DVS) analysis with XRPD after equilibration; assay type: physicochemical; settings: for moisture/water content on initial equilibration at 50% RH (DVS): beginning of analysis; for reversibility of water uptake (DVS): as relative humidity decreased
Procedure: Sorption isotherms were obtained using a Hiden Isochema moisture sorption analyzer (model IGAsorp), controlled by IGAsorp Systems Software V6.50.48. The sample was maintained at a constant temperature (25° C.) by the instrument controls. The humidity was controlled by mixing streams of dry and wet nitrogen, with a total flow of 250 mL·min^−1. The instrument was verified for relative humidity content by measuring three calibrated Rotronic salt solutions (10%, 50%, 88%). The weight change of the sample was monitored as a function of humidity by a microbalance (accuracy+/−0.005 mg). A defined amount of sample was placed in a tared mesh stainless steel basket under ambient conditions. A full experimental cycle typically consisted of three scans (sorption, desorption and sorption) at a constant temperature (25° C.) and 10% RH intervals over a 0-90% range (60 minutes for each humidity level). […]
This water content decreased as relative humidity decreased in the first desorption cycle.
The solid absorbed 3.39% water over the humidity range. […] The profile was similar to that of Form C in Example 7.2.

[2] = Solid state stability under humid conditions (40° C./75% RH and 25° C./60% RH, two weeks); assay type: physicochemical
Procedure: Stability of Compound 1 Hydrochloride Forms A, B, C, and D was evaluated under humid conditions. Samples of Forms A, B, C, and D were stored at 40° C./75% RH and 25° C./60% RH for a period of two weeks (loosely capped glass vials with approx. 200 mg solid). Solids were then re-analyzed using methods described herein. A summary of the results is provided in Table 12 (after storage at 25° C./60% RH) and Table 13 (after storage at 40° C./75% RH).

[3] = Drying studies of Compound 1 Hydrochloride (XRPD, TGA); assay type: physicochemical
Procedure: Compound 1 Hydrochloride Form A was then subjected to drying under various conditions.
Drying studies of Compound 1 Hydrochloride Form A (Type 1 Lot) were performed.
Variability in the drying profiles of different lots of Compound 1 Hydrochloride were noted, particularly with regards to the transition between Form A and Form C. The variable behavior appeared to depend upon the nature of the input Form A batch (e.g., how it was generated and then conditioned, if at all, prior to drying, and/or if excess hydrochloric acid was present).
Concentrated HCl (154 μL, 1 eqiuv) was added which clarified the suspension to a deep orange solution. The mixture was equilibrated for 30 minutes before cooling gradually to room temperature. A thin yellow suspension resulted. The solvent volume was reduced by 50% which thickened the suspension. The suspension was matured overnight, following which the solid was filtered to isolate the solids. The solid was air dried for ˜30 minutes giving a yellow solid (damp mass: 1.24 g; pH measured at 5.0). The XRPD pattern of the damp solid corresponded with Compound 1 Hydrochloride Form H. Analysis of the damp solid by DSC and TGA indicated a water content of 8.2%, which was fairly labile up ˜75° C.
Compound 1 Hydrochloride Form H was then subjected to a drying study under various conditions.
The solids were further subjected to prolonged drying.

[4] = Form stability on standing on bench or at 40° C./75% RH (XRPD); assay type: physicochemical
Procedure: Two samples of the solid were stored under glass with loose fitting lids on a bench and at 40° C./75% RH for a period of 5 days and re-analyzed by XRPD.
In an additional experiment, a sample of Form F was left to stand on a bench in a loosened vial for 48 hours.

[5] = Aqueous solubility of salt forms (25° C., 1, 4, 24 h); settings: deionized water; for XRPD: isolated solids
Procedure: Aqueous solubility of certain salt forms was assessed. Each solid (100 mg) was charged into a crystallization tube. Deionized water (1 mL) was added to each tube to give a suspension. The mixtures were equilibrated at 25° C. for 24 hours with sampling after 1 and 4 hours' equilibration. Solids were isolated and XRPD analysis obtained.

[6] = Dry in vacuo at 25° C., T = 4 h
[7] = Dry in vacuo at 25° C., T = 24 h
[8] = Dry in vacuo at 25° C., T = 48 h
[9] = Dry in vacuo at 25° C., T = 120 h
[10] = Dry in vacuo at 45° C., T = 4 h
[11] = Dry in vacuo at 45° C., T = 24 h
[12] = Dry in vacuo at 45° C., T = 120 h
[13] = Dry in vacuo at 70° C., T = 4 h
[14] = Dry in vacuo at 70° C., T = 24 h
[15] = Dry in vacuo at 70° C., T = 120 h
[16] = Form C prepared from Form A, Type 1 Lot
[17] = Form C prepared from Form A, Type 2 Lot
[18] = under glass with loose fitting lid, 5 days
[19] = Dry in vacuo at 25° C., T = 96 h
[20] = Dry in vacuo at 45° C., T = 96 h
[21] = Dry in vacuo at 70° C., T = 96 h

COC(=O)c1ccc2c(c1)NC(=O)/C2=C(\Nc1ccc(N(C)C(=O)CN2CCN(C)CC2)cc1)c1ccccc1.Cl [Compound 1 Hydrochloride Form B]
XRPD analysis following equilibration at 0% RH ([1]; 0% RH): Form F
moisture/water content on initial equilibration at 50% RH (DVS) [1]: 4.2%
XRPD analysis following equilibration at 90% RH ([1]; 90% RH): Form H
level of water reached in initial sorption step after 70% RH (DVS) ([1]; above 70% RH): 17.3%
reversibility of water uptake (DVS) [1]: reversible
loss of water on the initial desorption step (DVS) ([1]; initial desorption step): ~1.5%
water content after the second desorption step (DVS) ([1]; second desorption step): 1.1%
TGA After Storage: further loss above/post 200° C. ([2]; 25° C./60% RH): 1.41% post 200 °C
TGA After Storage: weight reduction to 60° C. ([2]; 25° C./60% RH): Weight reduction of 1.69% to 60 °C
XRPD After Storage ([2]; 25° C./60% RH): Form B
TGA After Storage: further loss above/post 200° C. ([2]; 40° C./75% RH): followed by further loss of 1.4%
TGA After Storage: weight reduction to 60° C. ([2]; 40° C./75% RH): Weight reduction of 1.0% to 60 °C
XRPD After Storage ([2]; 40° C./75% RH): Form H

COC(=O)c1ccc2c(c1)NC(=O)/C2=C(\Nc1ccc(N(C)C(=O)CN2CCN(C)CC2)cc1)c1ccccc1.Cl [Compound 1 Hydrochloride Form A (Type 2 Lot)]
XRPD analysis following equilibration at 0% RH ([1]; 0% RH): mixture of Form A and Form C
moisture/water content on initial equilibration at 50% RH (DVS) [1]: 6.39%
XRPD analysis following equilibration at 90% RH ([1]; 90% RH): predominantly Form A
uptake of water following initial equilibration at 50% RH during first desorption cycle (DVS) ([1]; first desorption cycle): −7%
water absorbed over the humidity range, first sorption cycle (DVS) ([1]; first sorption cycle): 8.66%
XRPD After Storage ([2]; 25° C./60% RH): Form A/C
XRPD After Storage ([2]; 40° C./75% RH): amorphous
TGA (%) [3, 6]: 9.96%
TGA (%) [3, 7]: 7.09%
XRPD [3, 7]: Form A
TGA (%) [3, 8]: 6.61%
XRPD [3, 8]: Form A
TGA (%) [3, 9]: 3.45%
TGA (%) [3, 10]: 9.89%
TGA (%) [3, 11]: 6.93%
TGA (%) ([3]; Dry in vacuo at 45° C., T = 48 h): 6.63%
TGA (%) [3, 12]: 2.27%
TGA (%) [3, 13]: 8.93%
TGA (%) [3, 14]: 6.49%
TGA (%) ([3]; Dry in vacuo at 70° C., T = 48 h): 6.68%
TGA (%) [3, 15]: 2.17%
TGA (%) ([3]; T = 0, before drying): 14.83%
level of hydration after extended drying ([3]; summary of drying studies, Table 10): reduced to 2-3%

COC(=O)c1ccc2c(c1)NC(=O)C2=C(Nc1ccc(N(C)C(=O)CN2CCN(C)CC2)cc1)c1ccccc1.Cl [Compound 1 Hydrochloride Form F]
behaviour on prolonged drying ([3]; all drying temperatures (25, 45, 70° C.)): robust toward further changes
form after standing on a bench in a loosened vial (XRPD and TGA) ([4]; 48 hours): fully converted into Form H

Maleate
Solubility ([5]; t = 1 h): 12.50 mg/mL
pH ([5]; t = 1 h): 6.35
Solubility ([5]; t = 4 h): 12.39 mg/mL
Solubility ([5]; t = 24 h): 9.45 mg/mL
pH ([5]; t = 24 h): 6.40

Tosylate
Solubility ([5]; t = 1 h): 2.07 mg/mL
pH ([5]; t = 1 h): 6.46
Solubility ([5]; t = 4 h): 2.02 mg/mL
Solubility ([5]; t = 24 h): 2.39 mg/mL
pH ([5]; t = 24 h): 6.66

COC(=O)c1ccc2c(c1)NC(=O)/C2=C(\Nc1ccc(N(C)C(=O)CN2CCN(C)CC2)cc1)c1ccccc1.Cl [Compound 1 Hydrochloride Form D]
TGA After Storage: further loss above/post 200° C. ([2]; 25° C./60% RH): 1.51% post 200 °C
XRPD After Storage ([2]; 25° C./60% RH): Form D
TGA After Storage: further loss above/post 200° C. ([2]; 40° C./75% RH): 1.68% post 200 °C
XRPD After Storage ([2]; 40° C./75% RH): Form D

COC(=O)c1ccc2c(c1)NC(=O)/C2=C(\Nc1ccc(N(C)C(=O)CN2CCN(C)CC2)cc1)c1ccccc1.Cl [HCl (Form A, Type 1 Lot)]
Solubility ([5]; t = 1 h): 70.37 mg/mL
pH ([5]; t = 1 h): 3.34
Solubility ([5]; t = 4 h): 50.54 mg/mL
Solubility ([5]; t = 24 h): 52.88 mg/mL
pH ([5]; t = 24 h): 3.28

COC(=O)c1ccc2c(c1)NC(=O)/C2=C(\Nc1ccc(N(C)C(=O)CN2CCN(C)CC2)cc1)c1ccccc1.Cl [Compound 1 Hydrochloride Form C]
XRPD analysis following equilibration at 0% RH ([1]; 0% RH): remained Form C
XRPD analysis following equilibration at 90% RH ([1]; 90% RH): Form A
water absorbed above 70% RH (DVS) [1, 16]: 8.38%
water absorbed up to 70% RH, initial sorption step (DVS) [1, 16]: 1.44%
water content reached over the humidity range on second sorption cycle (DVS) [1, 16]: 10%
XRPD analysis following equilibration at 0% RH [1, 17]: remained Form C
XRPD analysis following equilibration at 90% RH [1, 17]: remained Form C
water absorbed over the humidity range (DVS) [1, 17]: 3.39%
water absorbed up to 80% RH (DVS) [1, 17]: 1.55%
reversibility of water uptake (DVS) [1]: reversible
TGA After Storage: further loss above/post 200° C. ([2]; 25° C./60% RH): 0.98% post 200 °C
XRPD After Storage ([2]; 25° C./60% RH): Form C
TGA After Storage: further loss above/post 200° C. ([2]; 40° C./75% RH): 1.0% post 200 °C
XRPD After Storage ([2]; 40° C./75% RH): Form C
form after equilibration in water (damp solid, XRPD) ([3]; equilibrated in water for 48 hours): readily converted to Form A
XRPD after storage at 40° C./75% RH [4, 18]: no change from Form C
XRPD after storage on a bench [4, 18]: no change from Form C

COC(=O)c1ccc2c(c1)NC(=O)/C2=C(\Nc1ccc(N(C)C(=O)CN2CCN(C)CC2)cc1)c1ccccc1.Cl [HCl (Form A, Type 2 Lot)]
Solubility ([5]; t = 1 h): 46.11 mg/mL
pH ([5]; t = 1 h): 5.22
XRPD ([5]; t = 1 h): Form A
Solubility ([5]; t = 4 h): 43.78 mg/mL
XRPD ([5]; t = 4 h): Form A
Solubility ([5]; t = 24 h): 40.58 mg/mL
pH ([5]; t = 24 h): 5.25
XRPD ([5]; t = 24 h): Form A

COC(=O)c1ccc2c(c1)NC(=O)/C2=C(\Nc1ccc(N(C)C(=O)CN2CCN(C)CC2)cc1)c1ccccc1.Cl [Compound 1 Hydrochloride Form H]
TGA (%) [3, 6]: 0%
XRPD [3, 6]: Form F
XRPD [3, 7]: Form F
TGA (%) [3, 19]: 0%
XRPD [3, 19]: Form F
XRPD [3, 9]: Form F
TGA (%) [3, 10]: 0%
XRPD [3, 10]: Form F
XRPD [3, 11]: Form F
TGA (%) [3, 20]: 0%
XRPD [3, 20]: Form F
XRPD [3, 12]: Form F
TGA (%) [3, 13]: 0%
XRPD [3, 13]: Form F
XRPD [3, 14]: Form F
TGA (%) [3, 21]: 0%
XRPD [3, 21]: Form F
XRPD [3, 15]: Form F
TGA (%) ([3]; T = 0, before drying): 8.24%
XRPD ([3]; T = 0, before drying): Form H
